# Measurements published in ChEMBL document CHEMBL4373715, “Discovery and Biological Evaluations of Halogenated 2,4-Diphenyl Indeno[1,2-b]pyridinol Derivatives as Potent Topoisomerase IIα-Targeted Chemotherapeutic Agents for Breast Cancer” (J Med Chem, 2019).
# Legend:
# HCT-15 = assay: Antiproliferative activity against human HCT15 cells measured after 72 hrs by EZ-Cytox assay; format: functional, cell-based; conditions: HCT-15, 72 h
# [1] = molecular target: DNA topoisomerase 2-alpha (Homo sapiens) (UniProt P11388); assay: Inhibition of recombinant human topoisomerase 2alpha-mediated relaxation of supercoiled pBR322 DNA at 20 uM measured after 30 mins by ethidium bromide staining based agarose gel electrophoresis relative to control
# DU-145 = assay: Antiproliferative activity against human DU145 cells measured after 72 hrs by EZ-Cytox assay; format: functional, cell-based; conditions: DU-145, 72 h
# [2] = molecular target: T1, DNA topoisomerase 1 (Homo sapiens) (UniProt P11387); assay: Inhibition of recombinant human topoisomerase 1-mediated relaxation of supercoiled pBR322 DNA at 100 uM measured after 30 mins by ethidium bromide staining based agarose gel electrophoresis relative to control
# T1 sequence (whole entry): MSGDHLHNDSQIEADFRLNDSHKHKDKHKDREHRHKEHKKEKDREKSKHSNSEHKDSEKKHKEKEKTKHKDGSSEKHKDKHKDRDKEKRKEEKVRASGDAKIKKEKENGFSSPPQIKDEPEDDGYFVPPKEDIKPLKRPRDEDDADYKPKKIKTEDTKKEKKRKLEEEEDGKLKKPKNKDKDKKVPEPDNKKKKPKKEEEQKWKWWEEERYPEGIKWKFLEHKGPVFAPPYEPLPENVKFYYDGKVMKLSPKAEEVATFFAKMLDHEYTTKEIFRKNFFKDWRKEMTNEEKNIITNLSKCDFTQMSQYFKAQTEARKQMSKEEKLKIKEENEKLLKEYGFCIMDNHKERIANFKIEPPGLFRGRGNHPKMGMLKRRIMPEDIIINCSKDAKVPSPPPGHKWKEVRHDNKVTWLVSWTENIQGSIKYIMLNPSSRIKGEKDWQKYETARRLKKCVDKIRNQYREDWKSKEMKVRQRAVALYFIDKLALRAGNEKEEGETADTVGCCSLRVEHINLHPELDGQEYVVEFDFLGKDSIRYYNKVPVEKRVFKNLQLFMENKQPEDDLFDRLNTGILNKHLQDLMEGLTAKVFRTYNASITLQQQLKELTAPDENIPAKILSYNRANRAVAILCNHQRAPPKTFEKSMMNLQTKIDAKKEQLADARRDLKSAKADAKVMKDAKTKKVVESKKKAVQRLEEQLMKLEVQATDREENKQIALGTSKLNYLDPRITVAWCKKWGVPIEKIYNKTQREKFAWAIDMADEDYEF
# HeLa = assay: Antiproliferative activity against human HeLa cells measured after 72 hrs by EZ-Cytox assay; format: functional, cell-based
# [3] = molecular target: DNA topoisomerase 2-alpha (Homo sapiens) (UniProt P11388); assay: Inhibition of recombinant human topoisomerase 2alpha-mediated relaxation of supercoiled pBR322 DNA at 100 uM measured after 30 mins by ethidium bromide staining based agarose gel electrophoresis relative to control
# T47D = assay: Antiproliferative activity against human T47D cells measured after 72 hrs by EZ-Cytox assay; format: functional, cell-based
# Sequence of DNA topoisomerase 2-alpha (Homo sapiens) (P11388 whole entry): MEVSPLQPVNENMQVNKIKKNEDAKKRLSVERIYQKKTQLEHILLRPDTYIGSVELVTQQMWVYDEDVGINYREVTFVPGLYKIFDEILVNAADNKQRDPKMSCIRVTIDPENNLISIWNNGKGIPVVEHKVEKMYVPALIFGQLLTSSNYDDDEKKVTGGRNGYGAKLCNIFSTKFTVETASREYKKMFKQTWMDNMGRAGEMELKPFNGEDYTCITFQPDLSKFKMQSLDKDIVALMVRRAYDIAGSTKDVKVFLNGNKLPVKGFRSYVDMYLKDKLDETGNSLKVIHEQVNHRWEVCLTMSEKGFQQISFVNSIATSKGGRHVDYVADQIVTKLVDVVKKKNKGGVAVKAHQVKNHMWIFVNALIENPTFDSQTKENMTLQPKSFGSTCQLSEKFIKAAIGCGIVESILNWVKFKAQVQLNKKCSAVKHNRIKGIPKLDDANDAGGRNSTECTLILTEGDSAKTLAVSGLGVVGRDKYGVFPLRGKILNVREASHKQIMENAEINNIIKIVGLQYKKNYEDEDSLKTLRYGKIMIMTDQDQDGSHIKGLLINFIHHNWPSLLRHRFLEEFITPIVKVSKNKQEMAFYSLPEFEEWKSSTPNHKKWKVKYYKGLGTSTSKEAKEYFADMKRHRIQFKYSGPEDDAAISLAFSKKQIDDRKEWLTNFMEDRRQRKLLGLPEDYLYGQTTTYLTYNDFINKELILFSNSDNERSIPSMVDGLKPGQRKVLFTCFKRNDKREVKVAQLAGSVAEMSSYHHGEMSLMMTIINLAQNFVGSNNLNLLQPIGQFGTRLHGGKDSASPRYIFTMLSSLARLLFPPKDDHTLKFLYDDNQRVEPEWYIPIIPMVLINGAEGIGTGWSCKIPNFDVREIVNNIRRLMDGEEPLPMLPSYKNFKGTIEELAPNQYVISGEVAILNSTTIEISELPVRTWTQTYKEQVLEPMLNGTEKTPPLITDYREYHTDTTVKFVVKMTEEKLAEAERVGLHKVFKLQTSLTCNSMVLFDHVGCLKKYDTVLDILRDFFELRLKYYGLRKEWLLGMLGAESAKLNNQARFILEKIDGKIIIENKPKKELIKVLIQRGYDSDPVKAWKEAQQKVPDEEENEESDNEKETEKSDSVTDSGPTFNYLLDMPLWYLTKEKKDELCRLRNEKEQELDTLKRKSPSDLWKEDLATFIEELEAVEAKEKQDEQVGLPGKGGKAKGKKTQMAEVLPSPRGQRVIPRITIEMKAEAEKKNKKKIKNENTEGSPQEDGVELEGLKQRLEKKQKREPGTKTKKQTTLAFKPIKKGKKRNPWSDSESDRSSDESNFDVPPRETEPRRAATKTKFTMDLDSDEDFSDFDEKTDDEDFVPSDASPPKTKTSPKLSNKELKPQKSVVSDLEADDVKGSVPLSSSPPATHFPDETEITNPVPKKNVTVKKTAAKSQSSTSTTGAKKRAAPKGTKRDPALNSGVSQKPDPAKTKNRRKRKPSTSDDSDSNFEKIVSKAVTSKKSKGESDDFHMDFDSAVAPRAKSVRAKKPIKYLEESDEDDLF
inhibition [1] [%],inhibition [2] [%],inhibition [3] [%],SMILES,IC50 (HCT-15) [µM],IC50 (DU-145) [µM],IC50 (HeLa) [µM],IC50 (T47D) [µM]
0,2.9,21.4,Oc1ccc2c(c1)-c1nc(-c3ccccc3O)cc(-c3ccc(Cl)cc3)c1C2,> 50,> 50,> 50,> 50
0,17.5,66.2,Oc1cccc(-c2cc(-c3cccc(F)c3)nc3c2Cc2cc(O)ccc2-3)c1,2.71,1.41,3.85,0.79
0,0,57.5,Oc1cccc2c1-c1nc(-c3ccccc3)cc(-c3ccccc3)c1C2,2.07,1.4,3.08,0.74
56.4,8.7,71.3,Oc1ccc(-c2cc(-c3cccc(Cl)c3)nc3c2Cc2ccc(O)cc2-3)cc1,2.36,0.48,> 50,0.6
1.8,23.7,79.2,Oc1ccccc1-c1cc(-c2ccccc2Cl)c2c(n1)-c1cccc(O)c1C2,4.12,4.03,4.59,3.03
4.9,9.1,44.6,Oc1cccc(-c2cc(-c3ccccc3F)nc3c2Cc2cc(O)ccc2-3)c1,3.58,1.62,3.98,2.24
11.4,28.1,67.5,Oc1cccc(-c2cc(-c3ccccc3Cl)c3c(n2)-c2cccc(O)c2C3)c1,8.28,5.63,7.36,2.88
8.9,7.7,98.1,Oc1ccc(-c2cc(-c3ccc(Cl)cc3)c3c(n2)-c2ccc(O)cc2C3)cc1,18.5,1.43,6.83,1.51
1.4,11.7,47.1,Oc1ccc(-c2cc(-c3ccccc3F)nc3c2Cc2cccc(O)c2-3)cc1,> 50,10.3,> 50,47.2
4,0,84.8,Oc1ccccc1-c1cc(-c2ccccc2C(F)(F)F)nc2c1Cc1cccc(O)c1-2,1.64,2,1.99,0.75
2.4,0,74.5,Oc1ccccc1-c1cc(-c2cccc(Cl)c2)c2c(n1)-c1c(O)cccc1C2,2.46,2.82,14.3,1.97
13.3,3.2,71.6,Oc1ccc(-c2cc(-c3cccc(Cl)c3)c3c(n2)-c2c(O)cccc2C3)cc1,> 50,6.04,43.8,19
19.2,0,80.9,Oc1ccc(-c2cc(-c3ccccc3Cl)nc3c2Cc2ccc(O)cc2-3)cc1,3.04,0.54,3.22,0.95
4,1.9,67.2,Oc1ccc2c(c1)-c1nc(-c3ccccc3O)cc(-c3cccc(Cl)c3)c1C2,29.8,37.1,20,7.69
0.7,0.2,71.6,Oc1cccc(-c2cc(-c3cccc(C(F)(F)F)c3)nc3c2Cc2cccc(O)c2-3)c1,14.2,2.77,> 50,3.63
1.5,0,75.4,Oc1ccccc1-c1cc(-c2cccc(Cl)c2)c2c(n1)-c1cccc(O)c1C2,2.45,6.01,20.5,12
11.2,0,95,Oc1cccc(-c2cc(-c3ccc(Cl)cc3)nc3c2Cc2cc(O)ccc2-3)c1,0.85,1.28,1.09,1.5

inhibition [1] [%],inhibition [2] [%],inhibition [3] [%],SMILES,IC50 (HCT-15) [µM],IC50 (DU-145) [µM],IC50 (HeLa) [µM],IC50 (T47D) [µM]
0,0,82,Oc1ccccc1-c1cc(-c2ccccc2Cl)nc2c1Cc1c(O)cccc1-2,0.77,0.83,0.68,0.92
3,0,100,Oc1ccc2c(c1)-c1nc(-c3ccc(C(F)(F)F)cc3)cc(-c3ccccc3O)c1C2,3.25,2.8,2.23,0.67
3.4,16.9,88.6,Oc1cccc(-c2cc(-c3cccc(Cl)c3)nc3c2Cc2cccc(O)c2-3)c1,2.49,3.48,4.59,1.63
2.4,0,98.9,Oc1ccccc1-c1cc(-c2ccc(C(F)(F)F)cc2)nc2c1Cc1c(O)cccc1-2,4.54,3.46,6.14,1.33
1.4,1.2,75.3,Oc1ccc(-c2cc(-c3ccc(F)cc3)nc3c2Cc2cccc(O)c2-3)cc1,> 50,> 50,> 50,24.5
4.3,2.7,95.8,Oc1ccccc1-c1cc(-c2cccc(C(F)(F)F)c2)nc2c1Cc1cccc(O)c1-2,2.84,3.38,5.73,0.98
3.1,1.8,79,Oc1cccc(-c2cc(-c3ccccc3C(F)(F)F)nc3c2Cc2ccc(O)cc2-3)c1,1.67,1.83,3.71,1.22
25.7,8,86.6,Oc1ccc2c(c1)-c1nc(-c3ccc(Cl)cc3)cc(-c3ccccc3O)c1C2,1.78,0.49,4.61,0.72
12.4,7.3,80.4,Oc1cccc(-c2cc(-c3ccc(Cl)cc3)c3c(n2)-c2cc(O)ccc2C3)c1,> 50,32.2,> 50,> 50
51.9,16.7,87.8,Oc1cccc(-c2cc(-c3ccc(Cl)cc3)nc3c2Cc2ccc(O)cc2-3)c1,0.86,4.43,1.73,3.5
28.7,22.3,65.1,Oc1cccc(-c2cc(-c3ccc(F)cc3)nc3c2Cc2cc(O)ccc2-3)c1,1.92,2.94,3.74,1.72
42,18.6,76.8,Oc1cccc(-c2cc(-c3ccc(Cl)cc3)nc3c2Cc2c(O)cccc2-3)c1,1.82,2.03,4.32,1.96
8.2,11.7,70.5,Oc1ccc2c(c1)Cc1c(-c3ccccc3O)cc(-c3ccccc3Cl)nc1-2,2.34,1.51,0.84,2.86
2.3,7.4,64.6,Oc1cccc(-c2cc(-c3cccc(Cl)c3)c3c(n2)-c2cccc(O)c2C3)c1,4.79,21.3,35.5,33.1
0,13.9,85.9,Oc1ccc(-c2cc(-c3ccccc3C(F)(F)F)nc3c2Cc2cc(O)ccc2-3)cc1,2.43,2.31,2.07,1.05
0,6.7,59.9,Oc1ccc(-c2cc(-c3ccc(Cl)cc3)nc3c2Cc2c(O)cccc2-3)cc1,3,1.88,4.08,1.15
